The source of these data is ChEMBL document CHEMBL3352290, “Interactions with polynucleotides and antitumor activity of amidino and imidazolinyl substituted 2-phenylbenzothiazole mesylates” (Eur J Med Chem, 2014).

Series [1] is described as follows: Antiproliferative activity against human HCT116 cells assessed as growth inhibition after 72 hrs by MTT assay. Format: functional. To be noted: HCT-116, 72 h. (Formazan colour is commonly taken as a measure of viable cells.)
Series [2] is described as follows: Antiproliferative activity against human MIAPaCa2 cells assessed as growth inhibition after 72 hrs by MTT assay. It counts as functional. The conditions noted are these: MIA PaCa-2, 72 h.
For a further series, the system named is Mus musculus. Nature of the series: Acute oral toxicity in po dosed BALB/C mouse after 24 hrs. Format: organism-based. On the set-up: unit not given here. To be noted: in vivo.
The nature of series [3]: Solubility of the compound in water at 22 degC. It counts as physicochemical.
The nature of series [4]: Antiproliferative activity against human MOLT4 cells assessed as growth inhibition after 72 hrs by MTT assay. Format: functional. To be noted: MOLT-4, 72 h.
Another series concerns SW-620. Nature of the series: Antiproliferative activity against human SW620 cells assessed as growth inhibition after 72 hrs by MTT assay. Format: functional. To be noted: SW-620, 72 h.
Another series deals with MCF7. Briefly: Antiproliferative activity against human MCF7 cells assessed as growth inhibition after 72 hrs by MTT assay. It counts as functional. The conditions noted are these: MCF7, 72 h.
Series [5] in a line: Antiproliferative activity against human H460 cells assessed as growth inhibition after 72 hrs by MTT assay. It counts as functional. The conditions noted are these: NCI-H460, 72 h.
A further series relates to HeLa. Briefly: Antiproliferative activity against human HeLa cells assessed as growth inhibition after 72 hrs by MTT assay. Format: functional.
The nature of series [6]: Binding affinity to poly G (unknown origin) assessed as binding constant at pH7 by UV/vis titration.
Series [7] is described as follows: Binding affinity to poly G (unknown origin) assessed as spectral changes by UV/vis spectra.
Series [8] concerns Calf thymus DNA. Briefly: Binding affinity to calf thymus DNA assessed as change in melting temperature at pH7. Format: nucleic-acid assay. The conditions noted are these: Bos taurus.
A short description of series [9]: Binding affinity to poly U (unknown origin) assessed as binding constant at pH7 by UV/vis titration.
The nature of series [10]: Binding affinity to poly(dA-dT)2 (unknown origin) assessed as change in melting temperature at pH7.
Series [11] in a line: Binding affinity to poly G-poly C (unknown origin) assessed as binding constant at pH7 by UV/vis titration.
The nature of series [12]: Binding affinity to poly C (unknown origin) assessed as binding constant at pH7 by UV/vis titration.
Series [13] is described as follows: Binding affinity to poly(dA-dT)2 (unknown origin) assessed as binding constant at pH7 by UV/vis titration.
Series [14] is described as follows: Binding affinity to poly U (unknown origin) assessed as spectral changes by UV/vis spectra.
Series [15] can be described thus: Binding affinity to poly A-poly U (unknown origin) assessed as binding constant at pH7 by UV/vis titration.
In series [16] the test system is Calf thymus DNA. Nature of the series: Binding affinity to calf thymus DNA assessed as spectral changes at pH7 by UV/vis spectra. It counts as nucleic-acid assay. The conditions noted are these: Bos taurus.
The nature of series [17]: Binding affinity to poly G-poly C (unknown origin) assessed as spectral changes at pH7 by UV/vis spectra.
Series [18] can be described thus: Binding affinity to poly A (unknown origin) assessed as spectral changes by UV/vis spectra.
A short description of series [19]: Binding affinity to poly C (unknown origin) assessed as spectral changes by UV/vis spectra.
Series [20] is described as follows: Binding affinity to poly(dA-dT)2 (unknown origin) assessed as spectral changes at pH7 by UV/vis spectra.
The subject of series [21] is Calf thymus DNA. Nature of the series: Binding affinity to calf thymus DNA assessed as binding constant at pH7 by UV/vis titration. Format: nucleic-acid assay. To be noted: Bos taurus.
A short description of series [22]: Binding affinity to poly A-poly U (unknown origin) assessed as spectral changes at pH7 by UV/vis spectra.
Series [23] can be described thus: Binding affinity to poly A-poly U (unknown origin) assessed as change in melting temperature at pH7.
Series [24] can be described thus: Binding affinity to poly A (unknown origin) assessed as binding constant at pH7 by UV/vis titration.

`CS(=O)(=O)O.Nc1ccc(-c2nc3ccc(C4=NCCN4)cc3s2)cc1`: the GI50 was 1400 nM in series [1]; 1.4 µM in series [2]; 3200 nM in [4]; 1100 nM in the series on SW-620; 11.3 µM with MCF7; 500 nM in series [5]. In addition, the GI50 in the series on HeLa was 16.6 µM. Besides, the LD50 with Mus musculus is 175. In [3], this compound had a solubility of 130000 µg/mL.

`Nc1ccc(-c2nc3ccc(C4=NCCN4)cc3s2)cc1`: the log Ks came to 6.46 in series [6]; 4.77 in series [9]; 4.89 in series [11]; 5.11 in series [12]; 5.41 in series [13]; 5.44 in series [15]. The log Ks in the series with Calf thymus DNA [21] was 5.23; in [24] it was 5.6. Moreover, the Activity was 30.8% in series [7]; 18.3% in [14]; 37.1% in the series on Calf thymus DNA [16]; 30% in series [17]; 22.2% in series [18]; 16.3% in [19]. The values for the Activity in series [20] and in series [22] were 42.5% and 55.5%, respectively. Also, the ΔTm in the series on Calf thymus DNA [8] was found to be 0.7 °C; in series [10], 2.7 °C; in series [23], 3.9 °C.

`CS(=O)(=O)O.N=C(N)c1ccc2nc(-c3ccc(N)cc3)sc2c1.O`: the GI50 is 6100 nM in [1]; 8.5 µM in [2]; 2200 nM in [4]; 4700 nM with SW-620; 15.1 µM in the series with MCF7; 3200 nM in [5]. The GI50 in the series on HeLa was found to be 17.5 µM. Moreover, the LD50 in the series with Mus musculus is recorded as 26.1. For the same compound, the concentration in solution in series [3] (solubility) was 1100 µg/mL.

On to `Cl.Nc1ccc(-c2nc3ccc(C4=NCCN4)cc3s2)cc1.O`, for which the solubility in [3] was 200 µg/mL.

Turning to `Cl.N=C(N)c1ccc(-c2nc3ccc(N)cc3s2)cc1.O`, the solubility in series [3] came out at 700 µg/mL.

As for `N=C(N)c1ccc2nc(-c3ccc(N)cc3)sc2c1`, the log Ks in [6] amounted to 4.85; in series [9], 4.81; in series [11], 4.5; in series [12], 4.57; in series [13], 5.09; in [15], 4.55. Also, the log Ks in the series on Calf thymus DNA [21] was found to be 4.46; in series [24] it was 4.3. The Activity amounted to 23.4% in [7]; 16.3% in series [14]; 45.6% in the series on Calf thymus DNA [16]; 20.3% in [17]; 23% in series [18]; 13.6% in series [19]. Besides, the Activity in series [20] turned out to be 39.8%; in [22], 71.6%. Further, the ΔTm in the series with Calf thymus DNA [8] worked out at 0.7 °C; in series [10], 2.8 °C; in series [23], 1.3 °C.

Consider `Nc1ccc2nc(-c3ccc(C4=NCCN4)cc3)sc2c1`, for which the log Ks in [6] turned out to be 5.61; in [9], 4.43; in series [11], 5.1; in [12], 5.23; in [13] it was 5.19; in [15], 4.94. Besides, the log Ks was 4.77 with Calf thymus DNA [21] and 4.83 in series [24]. In addition, the Activity in [7] was determined as 28.6%; in series [14] it was 17.5%; with Calf thymus DNA [16], 38.1%; in [17], 23.9%; in series [18] it was 29.5%; in [19], 16.5%. The Activity in series [20] was 41.1%; in series [22] it was 53.1%. The ΔTm in the series on Calf thymus DNA [8] is 0 °C; in series [10], 2.1 °C; in series [23] it was 1.3 °C.

Regarding `Cl.N=C(N)c1ccc2nc(-c3ccc(N)cc3)sc2c1.O`, the solubility in series [3] is 3300 µg/mL.

`CS(=O)(=O)O.Nc1ccc2nc(-c3ccc(C4=NCCN4)cc3)sc2c1`: the GI50 in [1] is 1400 nM; in series [2] it was 1.1 µM; in series [4], 2300 nM; in the series on SW-620, 1200 nM; in the series with MCF7 it was 6.7 µM; in [5], 400 nM. In the series with HeLa, the GI50 was found to be 17.9 µM. Further, the LD50 in the series on Mus musculus amounted to 74.7. The same compound yielded a solubility in series [3] of 145000 µg/mL.

With `Cl.Nc1ccc2nc(-c3ccc(C4=NCCN4)cc3)sc2c1.O`, the solubility in series [3] was 600 µg/mL.

For the compound `N=C(N)c1ccc(-c2nc3ccc(N)cc3s2)cc1`, the log Ks worked out at 4.6 in series [6]; 5.15 in series [9]; 4.4 in series [11]; 4.19 in series [12]; 5.04 in series [13]; 4.5 in series [15]. In addition, the log Ks in the series on Calf thymus DNA [21] is 4.48; in series [24], 3.99. Besides, the Activity in [7] amounted to 33.5%; in series [14], 14.7%; with Calf thymus DNA [16] it was 42.2%; in [17] it was 25.3%; in [18], 24.3%; in [19] it was 13%. Moreover, the Activity in series [20] worked out at 37.5%; in [22], 45.5%. For the same compound, the ΔTm in the series on Calf thymus DNA [8] turned out to be 0 °C; in series [10] it was 2 °C; in series [23], 1 °C.

For the compound `CS(=O)(=O)O.N=C(N)c1ccc(-c2nc3ccc(N)cc3s2)cc1`, the GI50 in series [1] was determined as 1600 nM; in series [2], 9.7 µM; in series [4], 2800 nM; in the series on SW-620, 3500 nM; with MCF7, 1.8 µM; in series [5], 300 nM. In the series on HeLa, the GI50 turned out to be 21 µM. This compound came in with an LD50 with Mus musculus of 31.5. Moreover, in [3], the solubility was 12500 µg/mL.

Broadly, the GI50 is the concentration that inhibits growth by half. The term solubility denotes how much of the substance goes into solution per volume. The term ΔTm denotes the change in melting temperature against a reference sample.
